Test results reported in patent US6403343B2, “Method of producing a taxane-type diterpene and a method of obtaining cultured cells which produce the taxane-type dilterpene at a high rate” (Mitsui Chemicals, Inc., priority 1993, dated 2002).

Columns and labels:
Assay type in all cases: cell-based
[1] = tested on: cultured cells of Taxus baccata LINN; test: Taxane-type diterpene yield and cell yield, shake culture of Taxus baccata cells with a jasmonic acid (or jasmone) added
[2] = tested on: cultured cells of Taxus baccata LINN, layer of 1.07 g/ml or less; test: Same culture using cells of the specific gravity layer of 1.07 g/ml or less (Ficoll), jasmonic acids added; settings: 250 μM added on 14th day, 7 more days; cells of layer of 1.07 g/ml or less
Description: (§1) The cells with accelerated growth rate obtained by the method of Example 1 were fractionated firstly by a stainless steel mesh and cell clusters having the size of 250-840 μm were obtained. A medium having a specific gravity of 1.07 (g/ml) was produced by the use of Ficoll and the above-mentioned cells were layered over it and centrifuged at 700 rpm for 6 minutes. The cells were fractionated into two layers according to the difference of the specific gravity. The cells contained in the layer of 1.07 g/ml or less were fractionated and washed with 2% sucrose solution three times or more, to wash off Ficoll. After the washing, 1 g (fresh weight) of the cells was transferred to an Erlenmeyer flask containing 20 ml of liquid Woody Plant Medium and shake culture was carried out at 25° C. for 14 days. […] After completing the culture, the procedure of Example 1 was carried out.
as §1, with “growth rates” for “growth rate”, “Example 8” for “Example 1”, “was inoculated” for “was transferred”
as §1, with “Example 15” for “Example 1”, “was inoculated” for “was transferred”

[3] = tested on: cultured cells of Taxus baccata LINN; test: Taxane-type diterpenes in the culture medium after adding 100 μM methyl jasmonate (FIG. 1, FIG. 2); settings: 7th day after the addition
Description: The analytical results of taxane-type diterpenes existed in the culture medium of Example 15 prior to the addition of 100 μM of methyl jasmonate, on the third day after the addition, and on the 7th day after the addition, are shown in FIG. 1 and FIG. 2 On the 7th day of the culture, about half of the taxol and about 70% of the baccatin III were leaked in the medium.
The procedure of Example 20 was carried out except that the methyl ester of jasmonic acid was not added.

[4] = tested on: cultured cells of Taxus brevifolia NUTT; test: Taxane yield, Taxus brevifolia cultured cells with jasmonic acids added; settings: 250 μM added on 14th day, 7 more days
Description: After completing the culture, the procedure of Example 1 was carried out.
After completing the culture, the procedure of Example 8 was carried out.
After completing the culture, the procedure of Example 15 was carried out.

[5] = tested on: cultured cells of T. media; test: Taxane yield, T. media cultured cells with jasmonic acids added; settings: 250 μM added on 14th day, 7 more days
Description: The procedure of Example 6 was carried out except that cultured cells of T. media were used.
The procedure of Example 13 was carried out except that cultured cells of T. media were used.
The procedure of Example 22 was carried out except that cultured cells of T. media were used.

[6] = 0.01 μM added on 14th day, 7 more days
[7] = 0.1 μM added on 14th day, 7 more days
[8] = 1 μM added on 14th day, 7 more days
[9] = 10 μM added on 14th day, 7 more days
[10] = 25 μM added 4 times every two days from 7th day, total 100 μM
[11] = 50 μM added on 14th day, 7 more days
[12] = 100 μM added on 7th day, 14 more days
[13] = 100 μM added on 14th day, 7 more days
[14] = 100 μM added on first day, 20 more days
[15] = 250 μM added on 14th day, 7 more days
[16] = 500 μM added on 14th day, 7 more days
[17] = 1000 μM added on 14th day, 7 more days

CC/C=C\CC1C(=O)CCC1CC(=O)OC (centres unmarked) [methyl jasmonate]
cell yield [1, 6]: 12.2 g/L
yield of baccatin III [1, 6]: 0.3 mg/L
yield of cephalomannine [1, 6]: 1.6 mg/L
yield of taxol [1, 6]: 3.2 mg/L
cell yield [1, 7]: 12.1 g/L
yield of baccatin III [1, 7]: 0.3 mg/L
yield of cephalomannine [1, 7]: 1.6 mg/L
yield of taxol [1, 7]: 4.2 mg/L
cell yield [1, 8]: 11.3 g/L
yield of baccatin III [1, 8]: 0.4 mg/L
yield of cephalomannine [1, 8]: 1.8 mg/L
yield of taxol [1, 8]: 4.9 mg/L
cell yield [1, 9]: 11.3 g/L
yield of baccatin III [1, 9]: 0.7 mg/L
yield of cephalomannine [1, 9]: 2.1 mg/L
yield of taxol [1, 9]: 10.8 mg/L
cell yield [1, 10]: 10.7 g/L
yield of baccatin III [1, 10]: 14.9 mg/L
yield of cephalomannine [1, 10]: 2.2 mg/L
yield of taxol [1, 10]: 16.7 mg/L
cell yield [1, 11]: 10.9 g/L
yield of baccatin III [1, 11]: 3.1 mg/L
yield of cephalomannine [1, 11]: 2.2 mg/L
yield of taxol [1, 11]: 10.9 mg/L
cell yield [1, 12]: 9.7 g/L
yield of baccatin III [1, 12]: 10.6 mg/L
yield of cephalomannine [1, 12]: 2.1 mg/L
yield of taxol [1, 12]: 14.2 mg/L
cell yield [1, 13]: 9.8 g/L
yield of baccatin III [1, 13]: 9.2 mg/L
yield of cephalomannine [1, 13]: 2.0 mg/L
yield of taxol [1, 13]: 13.5 mg/L
cell yield [1, 14]: 7.2 g/L
yield of baccatin III [1, 14]: 1.2 mg/L
yield of cephalomannine [1, 14]: 1.7 mg/L
yield of taxol [1, 14]: 4.5 mg/L
cell yield [1, 15]: 10.0 g/L
yield of baccatin III [1, 15]: 12.9 mg/L
yield of cephalomannine [1, 15]: 2.0 mg/L
yield of taxol [1, 15]: 15.1 mg/L
cell yield [1, 16]: 10.6 g/L
yield of baccatin III [1, 16]: 13.0 mg/L
yield of cephalomannine [1, 16]: 1.9 mg/L
yield of taxol [1, 16]: 12.6 mg/L
cell yield [1, 17]: 5.9 g/L
yield of baccatin III [1, 17]: 1.2 mg/L
yield of cephalomannine [1, 17]: 1.8 mg/L
yield of taxol [1, 17]: 3.1 mg/L
cell yield [2]: 10.2 g/L
yield of baccatin III [2]: 18.7 mg/L
yield of cephalomannine [2]: 3.2 mg/L
yield of taxol [2]: 43.1 mg/L
baccatin III leaked in the medium [3]: about 70%
taxol leaked in the medium [3]: about half

COC(=O)C[C@H]1CCC(=O)[C@H]1C/C=C\CCO [methyl tuberonate]
cell yield [1, 6]: 14.3 g/L
yield of baccatin III [1, 6]: 0.4 mg/L
yield of cephalomannine [1, 6]: 1.3 mg/L
yield of taxol [1, 6]: 4.6 mg/L
cell yield [1, 7]: 13.5 g/L
yield of baccatin III [1, 7]: 0.5 mg/L
yield of cephalomannine [1, 7]: 1.5 mg/L
yield of taxol [1, 7]: 5.5 mg/L
cell yield [1, 8]: 13.2 g/L
yield of baccatin III [1, 8]: 0.7 mg/L
yield of cephalomannine [1, 8]: 1.8 mg/L
yield of taxol [1, 8]: 6.9 mg/L
cell yield [1, 9]: 13.0 g/L
yield of baccatin III [1, 9]: 0.9 mg/L
yield of cephalomannine [1, 9]: 2.2 mg/L
yield of taxol [1, 9]: 14.8 mg/L
cell yield [1, 10]: 12.9 g/L
yield of baccatin III [1, 10]: 13.5 mg/L
yield of cephalomannine [1, 10]: 2.3 mg/L
yield of taxol [1, 10]: 22.5 mg/L
cell yield [1, 12]: 12.5 g/L
yield of baccatin III [1, 12]: 10.5 mg/L
yield of cephalomannine [1, 12]: 2.1 mg/L
yield of taxol [1, 12]: 15.6 mg/L
cell yield [1, 13]: 12.7 g/L
yield of baccatin III [1, 13]: 12.2 mg/L
yield of cephalomannine [1, 13]: 2.4 mg/L
yield of taxol [1, 13]: 16.5 mg/L
cell yield [1, 14]: 7.1 g/L
yield of baccatin III [1, 14]: 1.0 mg/L
yield of cephalomannine [1, 14]: 1.3 mg/L
yield of taxol [1, 14]: 4.0 mg/L
cell yield [1, 15]: 12.5 g/L
yield of baccatin III [1, 15]: 14.5 mg/L
yield of cephalomannine [1, 15]: 2.2 mg/L
yield of taxol [1, 15]: 21.1 mg/L
cell yield [1, 16]: 11.6 g/L
yield of baccatin III [1, 16]: 15.0 mg/L
yield of cephalomannine [1, 16]: 2.3 mg/L
yield of taxol [1, 16]: 10.6 mg/L
cell yield [1, 17]: 7.5 g/L
yield of baccatin III [1, 17]: 1.2 mg/L
yield of cephalomannine [1, 17]: 1.8 mg/L
yield of taxol [1, 17]: 3.9 mg/L
cell yield [4]: 10.0 g/L
yield of baccatin III [4]: 1.4 mg/L
yield of cephalomannine [4]: 0.5 mg/L
yield of taxol [4]: 3.3 mg/L
cell yield [2]: 12.2 g/L
yield of baccatin III [2]: 17.4 mg/L
yield of cephalomannine [2]: 3.1 mg/L
yield of taxol [2]: 28.3 mg/L
cell yield [5]: 9.5 g/L
yield of baccatin III [5]: 10.4 mg/L
yield of cephalomannine [5]: 0.5 mg/L
yield of taxol [5]: 5.4 mg/L
